# Reference: patent publication EP4585599A1, “NITROGEN-CONTAINING FUSED RING COMPOUND, INTERMEDIATE THEREOF, PREPARATION METHOD THEREFOR AND USE THEREOF” (Hangzhou Synrx Therapeutics Biomedical Technology Co., Ltd., priority 2022, dated 2024)
# Where two headings read alike, the source gives them in different places.
# Key:
# [1] = target: T1, helicase domain of the Pol θ protein (Homo sapiens, UniProt O75417); test: Biochemical Activity Assay (ADP Glo Assay) of Pol θ inhibitor, ATPase activity; settings: read-out: Biochemical assay IC50
# T1 construct: The helicase domain of the Pol θ protein was purified from insect protein expression system; made in house; host or cells: insect protein expression system
# cells = settings: Homo sapiens, DLD-1, 240 h
# [2] = ADP-Glo assay, ATPase activity of Pol θ helicase domain, ssDNA substrate
# [3] = read-out: Cell viability assay IC50 (nM), CTG assay, CellTiter Glo, read on Day 10, cell line not given
# [4] = ADP-Glo, ssDNA substrate, 60 min at room temperature
# [5] = read-out: Cell viability assay IC50 (nM), CTG on Day 10, cell line not given (method: DLD1 and DLD1^-/- cells)
# T1 sequence (O75417 102-554 limits assumed): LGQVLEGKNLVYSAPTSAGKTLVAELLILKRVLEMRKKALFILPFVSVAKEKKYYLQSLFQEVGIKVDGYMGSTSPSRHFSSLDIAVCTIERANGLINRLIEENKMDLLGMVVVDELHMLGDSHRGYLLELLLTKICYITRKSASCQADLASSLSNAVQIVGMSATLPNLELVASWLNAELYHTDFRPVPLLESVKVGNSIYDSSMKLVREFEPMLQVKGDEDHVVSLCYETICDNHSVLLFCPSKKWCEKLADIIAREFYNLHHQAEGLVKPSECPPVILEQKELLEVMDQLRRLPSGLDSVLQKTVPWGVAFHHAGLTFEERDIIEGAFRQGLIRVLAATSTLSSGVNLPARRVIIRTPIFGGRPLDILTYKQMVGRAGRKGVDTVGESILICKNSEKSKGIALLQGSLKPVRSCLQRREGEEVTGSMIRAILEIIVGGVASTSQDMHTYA
"IC50 [1, 2]","IC50 [1, 4]",SMILES,IC50 (cells; [3]),IC50 (cells; [5]),IC50 [1],IC50 (cells; read-out: Cell viability assay IC50 (nM))
4.64 nM,,"[2H]C([2H])([2H])c1cnn(C)c1-c1cc2sc(NC(=O)c3cnc(C)cc3-c3cc(Cl)ncc3OC)nc2cn1 [Example 176, 2'-chloro-5'-methoxy-6-methyl-N-(6-(1-methyl-4-(methyl-d3)-1H-pyrazol-5-yl)thiazolo [4,5-c]pyridin-2-yl)-[4,4'-bipyridine]-3-carboxamide]",4.29 nM,,,
3.52 nM,,COc1cnc(Cl)c(F)c1-c1cc(C)ncc1C(=O)Nc1nc2ncc(N3CCC(O)CC3)cc2s1 [Example 127],15.8 nM,,,
8.06 nM,,CCP(=O)(CC)c1ccc(-c2cc3sc(NC(=O)c4cnc(C)cc4-c4cc(Cl)ncc4OC)nc3cc2F)cc1 [Example 189],12.9 nM,,,
8.94 nM,,COc1cnc(Cl)cc1-c1cc(C)ncc1C(=O)Nc1nc2cnc(C3=CCC4(CC3)CN(C(C)=O)C4)cc2s1 [Example 185],35.9 nM,,,
2.51 nM,< 50 nM,"COc1cnc(Cl)cc1-c1cc(C)ncc1C(=O)Nc1nc2ncc(-c3ccc(P(C)(C)=O)cc3)cc2s1 [Example 75, 2'-chloro-N-(6-(4-(dimethylphosphoryl)phenyl)thiazolo[4,5-b]pyridin-2-yl)-5'-methoxy-6-methyl-[4,4'-bipyridine]-3-carboxamide]",681 nM,500 to 1000 nM,,
,,COc1cnc(C(F)F)cc1-c1cc(C)ncc1C(=O)Nc1nc2cnc(N3CCC(O)CC3)nc2s1 [Example 198],,,4.23 nM,23.3 nM
5.75 nM,,COc1cnc(Cl)cc1-c1cc(C)ncc1C(=O)Nc1nc2ncc(-c3c(C)cnn3C)nc2s1 [Example 160],82.5 nM,,,
2.51 nM,,COc1cnc(Cl)cc1-c1cc(C)ncc1C(=O)Nc1nc2cnc(-c3c(C)nn(C)c3C)cc2s1 [Example 163],3.41 nM,,,
2.67 nM,< 50 nM,COc1cnc(Cl)cc1-c1cc(C)ncc1C(=O)Nc1nc2ncc(C3=COCCO3)cc2s1 [Example 86],23.3 nM,< 100 nM,,
3.48 nM,,COc1cnc(Cl)cc1-c1cc(C)ncc1C(=O)Nc1nc2cnc(-c3c(C)cnn3C(C)C)cc2s1 [Example 212],2.23 nM,,,
2.75 nM,,[2H]C([2H])([2H])Oc1cnc(Cl)cc1-c1cc(C)ncc1C(=O)Nc1nc2cnc(-c3c(C)cnn3C)cc2s1 [Example 156],5.62 nM,,,
8.06 nM,,COc1cnc(Cl)c(F)c1-c1cc(C)ncc1C(=O)Nc1nc2ccc(N3CCC(CO)CC3)nc2s1 [Example 129],9.68 nM,,,
2.51 nM,,COc1cnc(Cl)cc1-c1cc(C)ncc1C(=O)Nc1nc2cnc(-c3c(C)cnn3CCO)cc2s1 [Example 220],22.2 nM,,,
2.84 nM,< 50 nM,COc1cnc(Cl)cc1-c1cc(C)ncc1C(=O)Nc1nc2ncc(C3=CCC(NC(C)=O)CC3)cc2s1 (stereo not shown) [Example 23],15.3 nM,< 100 nM,,
11.7 nM,,"COc1cnc(Cl)cc1-c1cc(N2CCN(C)C3(CC3)C2=O)ncc1C(=O)Nc1nc2cnc(-c3c(C)nnn3C)cc2s1 [Example 196, 2'-chloro-N-(6-(1,4-dimethyl-1H-1,2,3-triazol-5-yl)thiazolo[4,5-c]pyridin-2-yl)-5'-methoxy-6-(4-methyl-8-oxo-4,7-diazaspiro[2.5]oct-7-yl)-[4,4'-bipyridine]-3-carboxamide]",3.83 nM,,,
1.09 nM,< 50 nM,COc1cnc(Cl)c(F)c1-c1cc(C)ncc1C(=O)Nc1nc2ncc(C3=CCC(O)CC3)cc2s1 (stereo not shown) [Example 8],24.2 nM,< 100 nM,,
7.58 nM,< 50 nM,COc1cnc(Cl)c(F)c1-c1cc(C)ncc1C(=O)Nc1nc2ncc(N3CCOCC3)cc2s1 [Example 49],54.1 nM,< 100 nM,,
6.11 nM,,COc1cnc(Cl)cc1-c1cc(C)ncc1C(=O)Nc1nc2ccc(N3CCOCC3=O)nc2s1 [Example 202],38.8 nM,,,
